Assay results: patent US6355799B1, “Substituted benzene compounds, process for their preparation, and herbicidal and defoliant compositions containing them” (ISK Americas Incorporated, priority 1997, dated 2002)

Columns and labels:
Assay type in all cases: in vivo
[1] = tested on: redroot pigweed (Amaranthus retroflexus, AMARE); experiment: Pre-emerge test, greenhouse herbicide activity screening; conditions: rating scale 0-100, 14 days after application
In short: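 Herbicidal damage is scored 0 (none) to 100 (complete plant death) two weeks after a simulated field spray. Rates span 15–1000 g ai/ha, delivered in acetone at 187 l/ha. For post-emergence treatments, plants have 2–3 leaves and the spray carries 0.25% v/v non-ionic surfactant.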

[2] = tested on: upland rice (Oryza sp., var. Tebonnet, RICE); experiment: Pre-emerge test, crop safety; conditions: rating scale 0-100, 14 days after application
In short: (§1)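 Fourteen days after spraying, crop and weed injury was graded visually from 0, no effect, to 100, every plant dead. Test substances were dissolved in acetone and applied at 15–1000 g ai/ha with a flat-fan nozzle. Application was either pre-emergence, one day after sowing, or post-emergence at the 2–3 leaf stage.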

[3] = tested on: field corn (Zea mays L., var. Dekalb 535, CORN); experiment: Pre-emerge test, crop safety; conditions: rating scale 0-100, 14 days after application
In short: as §1

[4] = tested on: ivyleaf morningglory (Ipomoea hederacea, IPOHE); experiment: Pre-emerge test, greenhouse herbicide activity screening; conditions: rating scale 0-100, 14 days after application
In short: (§2)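 Compounds in acetone were track-sprayed at 15–1000 g ai/ha: pre-emergence onto soil sown the previous day, then top-watered to incorporate and later bottom-watered; post-emergence onto 2–3 leaf plants with 0.25% v/v surfactant, bottom-watered only. Ratings on a 0–100 phytotoxicity scale were taken at day 14.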

[5] = tested on: barnyardgrass (Echinochloa crus-galli, ECHCG); experiment: as above; conditions: rating scale 0-100, 14 days after application
In short: as §2

[6] = tested on: green foxtail (Setaria viridis, SETVI); experiment: as above; conditions: rating scale 0-100, 14 days after application
In short: as §2

[7] = tested on: large crabgrass (Digitaria sanguinalis, DIGSA); experiment: as above; conditions: rating scale 0-100, 14 days after application
In short: as §2

[8] = tested on: velvetleaf (Abutilon theophrasti, ABUTH); experiment: as above; conditions: rating scale 0-100, 14 days after application
In short: as §2

[9] = tested on: lambsquarters (Chenopodium album, CHEAL); experiment: as above; conditions: rating scale 0-100, 14 days after application
In short: as §2

[10] = tested on: johnsongrass (Sorghum halepense, SORHA); experiment: as above; conditions: rating scale 0-100, 14 days after application
In short: as §2

[11] = tested on: sicklepod (Cassia obtusifolia, CASOB); experiment: as above; conditions: rating scale 0-100, 14 days after application
In short: as §2

[12] = tested on: upland rice (Oryza sp., var. Tebonnet, RICE); experiment: Post-emerge test, crop safety; conditions: rating scale 0-100 (0 no damage, 100 complete death), 14 days after application
In short: (§3)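 Rating: 0–100 visual injury, 14 DAA. Application: acetone, 187 l/ha, 15–1000 g ai/ha, flat-fan track sprayer with nozzle 40–45 cm above soil or canopy. Post-emerge runs used 0.25% v/v surfactant on 2–3 leaf plants.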

[13] = tested on: field corn (Zea mays L., var. Dekalb 535, CORN); experiment: Post-emerge test, crop safety; conditions: rating scale 0-100 (0 no damage, 100 complete death), 14 days after application
In short: as §3

[14] = tested on: ivyleaf morningglory (Ipomoea hederacea, IPOHE); experiment: Post-emerge test, greenhouse herbicide activity screening; conditions: rating scale 0-100 (0 no damage, 100 complete death), 14 days after application
In short: (§4)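 Compounds in acetone were track-sprayed at 187 l/ha, 15–1000 g ai/ha, onto sandy loam pots. Pre-emerge seeds were sown one day before spraying, with surface watering afterwards. Post-emerge plants were at the 2–3 leaf stage and sprayed with 0.25% v/v non-ionic surfactant. Injury was rated 0–100 at 14 days.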

[15] = tested on: barnyardgrass (Echinochloa crus-galli, ECHCG); experiment: as above; conditions: rating scale 0-100 (0 no damage, 100 complete death), 14 days after application
In short: as §4

[16] = tested on: green foxtail (Setaria viridis, SETVI); experiment: as above; conditions: rating scale 0-100 (0 no damage, 100 complete death), 14 days after application
In short: as §4

[17] = tested on: large crabgrass (Digitaria sanguinalis, DIGSA); experiment: as above; conditions: rating scale 0-100 (0 no damage, 100 complete death), 14 days after application
In short: as §4

[18] = tested on: velvetleaf (Abutilon theophrasti, ABUTH); experiment: as above; conditions: rating scale 0-100 (0 no damage, 100 complete death), 14 days after application
In short: as §4

[19] = tested on: lambsquarters (Chenopodium album, CHEAL); experiment: as above; conditions: rating scale 0-100 (0 no damage, 100 complete death), 14 days after application
In short: as §4

[20] = tested on: redroot pigweed (Amaranthus retroflexus, AMARE); experiment: as above; conditions: rating scale 0-100 (0 no damage, 100 complete death), 14 days after application
In short: as §4

[21] = tested on: johnsongrass (Sorghum halepense, SORHA); experiment: as above; conditions: rating scale 0-100 (0 no damage, 100 complete death), 14 days after application
In short: as §4

[22] = tested on: common ragweed (Ambrosia artemisizfolia L., AMBEL); experiment: as above; conditions: rating scale 0-100 (0 no damage, 100 complete death), 14 days after application
In short: as §4

[23] = tested on: sicklepod (Cassia obtusifolia, CASOB); experiment: as above; conditions: rating scale 0-100 (0 no damage, 100 complete death), 14 days after application
In short: as §4

COCCOC(=O)C(C)(Cl)Cc1c(OC)c(Cl)cc(F)c1-n1c(=O)cc(C(F)(F)F)n(C)c1=O (stereo not shown) [14-47]
90: Post-emerge Herbicidal Activity, phytotoxicity rating SETVI ([16]; Rate 63 g ai/ha)
0: Pre-emerge phytotoxicity rating, crop damage RICE ([2]; 63 g ai/ha) | Pre-emerge phytotoxicity rating, crop damage CORN ([3]; 63 g ai/ha) | Pre-emerge phytotoxicity rating, crop damage CORN ([3]; 250 g ai/ha) | Pre-emerge herbicidal activity, phytotoxicity rating IPOHE ([4]; 63 g ai/ha) | Pre-emerge herbicidal activity, phytotoxicity rating IPOHE ([4]; 250 g ai/ha) | Pre-emerge herbicidal activity, phytotoxicity rating ECHCG ([5]; 63 g ai/ha) | Pre-emerge herbicidal activity, phytotoxicity rating SETVI ([6]; 63 g ai/ha) | Pre-emerge herbicidal activity, phytotoxicity rating SORHA ([10]; 63 g ai/ha) | Pre-emerge herbicidal activity, phytotoxicity rating CASOB ([11]; 63 g ai/ha) | Pre-emerge herbicidal activity, phytotoxicity rating CASOB ([11]; 250 g ai/ha) | Post-emerge Herbicidal Activity, phytotoxicity rating CASOB ([23]; Rate 63 g ai/ha)
95: Pre-emerge herbicidal activity, phytotoxicity rating ECHCG ([5]; 250 g ai/ha) | Post-emerge Herbicidal Activity, phytotoxicity rating DIGSA ([17]; Rate 63 g ai/ha)
20: Pre-emerge herbicidal activity, phytotoxicity rating SORHA ([10]; 250 g ai/ha)
40: Post-emerge phytotoxicity rating CORN (crop damage) ([13]; Rate 63 g ai/ha)
80: Post-emerge Herbicidal Activity, phytotoxicity rating IPOHE ([14]; Rate 63 g ai/ha) | Post-emerge Herbicidal Activity, phytotoxicity rating SORHA ([21]; Rate 250 g ai/ha)
100: Pre-emerge herbicidal activity, phytotoxicity rating AMARE ([1]; 63 g ai/ha) | Pre-emerge herbicidal activity, phytotoxicity rating AMARE ([1]; 250 g ai/ha) | Pre-emerge herbicidal activity, phytotoxicity rating DIGSA ([7]; 250 g ai/ha) | Pre-emerge herbicidal activity, phytotoxicity rating ABUTH ([8]; 63 g ai/ha) | Pre-emerge herbicidal activity, phytotoxicity rating ABUTH ([8]; 250 g ai/ha) | Pre-emerge herbicidal activity, phytotoxicity rating CHEAL ([9]; 63 g ai/ha) | Pre-emerge herbicidal activity, phytotoxicity rating CHEAL ([9]; 250 g ai/ha) | Post-emerge phytotoxicity rating RICE (crop damage) ([12]; Rate 63 g ai/ha) | Post-emerge phytotoxicity rating RICE (crop damage) ([12]; Rate 250 g ai/ha) | Post-emerge phytotoxicity rating CORN (crop damage) ([13]; Rate 250 g ai/ha) | Post-emerge Herbicidal Activity, phytotoxicity rating IPOHE ([14]; Rate 250 g ai/ha) | Post-emerge Herbicidal Activity, phytotoxicity rating ECHCG ([15]; Rate 63 g ai/ha) | Post-emerge Herbicidal Activity, phytotoxicity rating ECHCG ([15]; Rate 250 g ai/ha) | Post-emerge Herbicidal Activity, phytotoxicity rating SETVI ([16]; Rate 250 g ai/ha) | Post-emerge Herbicidal Activity, phytotoxicity rating DIGSA ([17]; Rate 250 g ai/ha) | Post-emerge Herbicidal Activity, phytotoxicity rating ABUTH ([18]; Rate 63 g ai/ha) | Post-emerge Herbicidal Activity, phytotoxicity rating ABUTH ([18]; Rate 250 g ai/ha) | Post-emerge Herbicidal Activity, phytotoxicity rating CHEAL ([19]; Rate 63 g ai/ha) | Post-emerge Herbicidal Activity, phytotoxicity rating CHEAL ([19]; Rate 250 g ai/ha) | Post-emerge Herbicidal Activity, phytotoxicity rating AMARE ([20]; Rate 63 g ai/ha) | Post-emerge Herbicidal Activity, phytotoxicity rating AMARE ([20]; Rate 250 g ai/ha) | Post-emerge Herbicidal Activity, phytotoxicity rating AMBEL ([22]; Rate 63 g ai/ha) | Post-emerge Herbicidal Activity, phytotoxicity rating AMBEL ([22]; Rate 250 g ai/ha)
30: Pre-emerge herbicidal activity, phytotoxicity rating DIGSA ([7]; 63 g ai/ha)
99: Pre-emerge herbicidal activity, phytotoxicity rating SETVI ([6]; 250 g ai/ha)
70: Pre-emerge phytotoxicity rating, crop damage RICE ([2]; 250 g ai/ha) | Post-emerge Herbicidal Activity, phytotoxicity rating SORHA ([21]; Rate 63 g ai/ha) | Post-emerge Herbicidal Activity, phytotoxicity rating CASOB ([23]; Rate 250 g ai/ha)
